Measurements reported in US20240122990A1, “COMPOSITIONS AND METHODS FOR CARDIOMYOCYTE TRANSPLANTATION” (UNIVERSITY OF WASHINGTON, priority 2021, published 2024).

How the values were obtained:
[1] = tested on: T-cell activation; settings: relative to abatacept; cited from earlier work
[2] = tested on: riPSC-CM cardiomyocyte grafts; test: Allogeneic rhesus iPSC-CM transplantation into MHC-mismatched rhesus recipients, histopathological immune rejection of the graft; assay type: in vivo, rhesus macaque (Macaca mulatta); settings: low-dose subcutaneous TAC alone, trough 5-10 ng/mL; 8 weeks post-transplant; 200×10^6 riPSC-CMs
Description: To identify a minimal, steroid-sparing immunosuppression regimen for first-in-human allogeneic transplantation, a non-human primate (NHP) model was developed where rhesus iPSC-CM are transplanted into normal or infarcted hearts of MHC-mismatched recipients. Allogeneic iPSCs derived from rhesus macaque (Macaca mulatta) were differentiated into a highly enriched population of cardiomyocytes (riPSC-CMs). 200×10^6 riPSC-CMs were transplanted into 11 MHC-mismatched rhesus recipients. The primary study endpoint was the degree of histopathological immune rejection. […] Subsequent studies focused on 8-week engraftment, with promising regimens studied further out to 16 weeks.

## Belatacept: derivative of abatacept comprising two amino acid alterations in the CD80/86 binding portion
[1]
  increase in the ability to inhibit T-cell activation in vitro compared to abatacept: 10 fold

## C=CC[C@@H]1/C=C(\C)C[C@H](C)C[C@H](OC)[C@H]2O[C@@](O)(C(=O)C(=O)N3CCCC[C@H]3C(=O)O[C@H](/C(C)=C/[C@@H]3CC[C@@H](O)[C@H](OC)C3)[C@H](C)[C@@H](O)CC1=O)[C@H](C)C[C@@H]2OC [tacrolimus]
[2]
  degree of histopathological immune rejection of the graft: moderate to severe rejection
